Results published in US5494907A, “11-β substituted-19-nor steroids” (Roussel UCLAF, priority 1993, dated 1996).

Tests used:
[1] = molecular target: T1, hGR (recombinant human glucocorticoid receptor) (Homo sapiens, UniProt P04150); experiment: Relative bond affinity (RBA) on recombinant human glucocorticoid receptor, displacement of tritiated 6,21-dimethyl-Δ1,4,6-pregnatrien-11β,17β-diol-20-yn-3-one; format: binding; details: for RBA hGR: Dexamethasone = 100, 0° C., 24 hours; for affinity for the glucocorticoid receptor (in words): conclusion in words
T1 construct: made in house; host or cells: SF9 insect cells, recombinant baculovirus
T1 sequence (P04150 1-777): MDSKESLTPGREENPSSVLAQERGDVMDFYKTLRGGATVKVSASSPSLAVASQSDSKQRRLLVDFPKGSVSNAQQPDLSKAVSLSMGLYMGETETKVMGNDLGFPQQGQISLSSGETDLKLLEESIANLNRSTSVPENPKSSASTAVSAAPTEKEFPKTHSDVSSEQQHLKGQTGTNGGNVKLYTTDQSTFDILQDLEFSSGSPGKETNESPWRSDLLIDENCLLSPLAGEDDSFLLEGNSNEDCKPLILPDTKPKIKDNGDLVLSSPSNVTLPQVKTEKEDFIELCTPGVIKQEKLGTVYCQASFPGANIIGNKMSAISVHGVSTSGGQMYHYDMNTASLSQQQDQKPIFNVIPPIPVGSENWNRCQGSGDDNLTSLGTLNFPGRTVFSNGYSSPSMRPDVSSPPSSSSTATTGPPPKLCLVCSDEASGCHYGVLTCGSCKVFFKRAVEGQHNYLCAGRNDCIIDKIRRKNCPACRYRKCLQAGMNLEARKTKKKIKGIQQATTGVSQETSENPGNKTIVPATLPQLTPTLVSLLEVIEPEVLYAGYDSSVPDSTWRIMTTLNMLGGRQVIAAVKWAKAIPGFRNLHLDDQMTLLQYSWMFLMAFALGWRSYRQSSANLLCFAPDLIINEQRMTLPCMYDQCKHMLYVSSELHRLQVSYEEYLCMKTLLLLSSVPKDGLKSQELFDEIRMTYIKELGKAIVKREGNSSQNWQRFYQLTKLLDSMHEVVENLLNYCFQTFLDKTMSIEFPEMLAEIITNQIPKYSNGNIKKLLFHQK
Excerpt: (§1) 1--Activity on the hormonal receptors using either the natural hormonal receptor of a rat (AR), or the recombinant human receptor (PR, GR and ER).
Human glucocorticoid receptor
A supernatant of SF9 cells containing the recombinant human glucocorticoid receptor was obtained by the process described above for the progesterone receptor using the cDNA fragment described HOLLENBERG et al. (Nature (1985), Vol. 318 No. 19/26, p. 635) containing the region coding for the human glucocorticoid receptor. The cells were lysed in a lysis buffer (2). The supernatant was incubated at 0° C. for 24 hours with a constant concentration (T) of 6,21-dimethyl-Δ1,4,6-pregnatrien-11β,17β-diol-20-yn-3-one tritiated in the presence of increasing concentrations either of unlabelled dexamethasone (0-1000×10^-9 M), or of the unlabelled product under test (1 to 25000×10^-9 M). The concentration of bound tritiated 6,21-dimethyl-Δ1,4,6-pregnatrien-11β,17β-diol-20-yn-3-one (B) was then measured in each incubate by the technique of adsorption with carbon dextran.
(§2) Calculation of the relative bond affinity (RBA).
(§3) The following 2 curves were traced: percentage of bound tritiated hormone B/BO as a function of the logarithm of the concentration of unlabelled reference hormone or as a function of the logarithm of the concentration of the unlabelled product under test.
(§4) The straight line of the following equation was determined:
(§5) BO=Concentration of bound tritiated hormone in the absence of any unlabelled product,
(§6) B=Concentration of bound tritiated hormone in the presence of a concentration X of unlabelled product,
(§7) B min=Concentration of bound tritiated hormone in the presence of a large excess of cold reference hormone (500 nM). The intersections of the straight line I50 and the curves allowed the evaluation of the concentrations of unlabelled reference hormone (CH) and of the unlabelled product under test (CX) which inhibited by 50% the specific binding of the tritiated hormone on the receptor.
The relative bond affinity (RBA) of the product under test was determined by the equation:
The RBA's of the reference products estradiol, progesterone, dexamethasone and testosterone were arbitrarily taken to be equal to 100.

[2] = molecular target: T2, AR (androgen receptor of the prostate of a rat) (Rattus norvegicus, UniProt P15207); experiment: Relative bond affinity (RBA) on androgen receptor of the prostate of a rat, displacement of tritiated testosterone; format: binding; details: Testosterone = 100; 0° C., 24 hours
T2 construct: using either the natural hormonal receptor of a rat (AR); from tissue; host or cells: prostate of castrated male Sprague Dawley rats, high-speed supernatant
T2 sequence (P15207 1-902): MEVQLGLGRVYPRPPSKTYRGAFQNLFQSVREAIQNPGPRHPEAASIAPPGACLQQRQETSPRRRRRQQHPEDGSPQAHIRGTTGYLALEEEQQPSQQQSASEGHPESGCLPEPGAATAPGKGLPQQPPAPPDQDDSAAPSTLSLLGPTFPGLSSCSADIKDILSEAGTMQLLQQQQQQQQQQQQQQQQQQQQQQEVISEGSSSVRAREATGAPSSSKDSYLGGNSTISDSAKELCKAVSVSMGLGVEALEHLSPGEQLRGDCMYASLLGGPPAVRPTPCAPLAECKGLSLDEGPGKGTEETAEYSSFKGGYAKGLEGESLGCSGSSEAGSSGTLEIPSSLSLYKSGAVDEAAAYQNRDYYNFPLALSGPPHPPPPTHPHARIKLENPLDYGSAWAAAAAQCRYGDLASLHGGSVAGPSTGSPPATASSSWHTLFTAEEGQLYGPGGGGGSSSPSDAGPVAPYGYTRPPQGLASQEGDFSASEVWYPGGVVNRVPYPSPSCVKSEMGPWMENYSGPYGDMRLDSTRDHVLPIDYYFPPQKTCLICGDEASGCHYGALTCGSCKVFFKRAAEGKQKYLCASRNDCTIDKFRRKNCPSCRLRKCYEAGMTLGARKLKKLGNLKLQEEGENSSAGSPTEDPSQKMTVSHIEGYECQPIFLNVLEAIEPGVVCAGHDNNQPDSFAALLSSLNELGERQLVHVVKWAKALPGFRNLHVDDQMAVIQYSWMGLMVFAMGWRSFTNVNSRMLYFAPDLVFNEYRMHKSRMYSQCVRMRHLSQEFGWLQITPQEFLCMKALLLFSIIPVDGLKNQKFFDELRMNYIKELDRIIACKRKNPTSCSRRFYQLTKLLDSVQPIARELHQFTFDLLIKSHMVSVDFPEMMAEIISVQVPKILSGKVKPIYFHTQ
Experimental: as §1
Androgen receptor of the prostate of a rat
Male Sprague Dawley EOPS rats weighing 180 to 200 g were castrated and 24 hours after the castration, the animals were sacrificed. The prostates were removed, weighed and homogenized at 0° C. using a Potter teflon-glass in a TS buffered solution (10 mM Tris, 0.25 M saccharose, 2 mMDTT, 20 mM MoNa, 0.1 mM PMSF, pH 7.4) (1 g of tissue per 8 ml of TS). The homogenate was centrifuged (209,000 g for 30 minutes) at 0° C. Aliquots of the supernatant were incubated at 0° C. for 24 hours with a constant concentration (T) of tritiated testosterone in the presence of increasing concentrations, either of unlabelled testosterone (0 to 1000×10^-9 M), or of the product under test (1 to 25000×10^-9 M). The concentration of bound tritiated testosterone (B) was measured in each incubate by the technique of adsorption with carbon dextran.
as §2, §3, §4, §5, §6, §7
The relative bond affinity (RBA) of the product under test was determined by the equation: […]

Row | SMILES | RBA hGR [1] | affinity for the glucocorticoid receptor (in words) [1] | RBA AR [2]
1 | CCCCN(C)S(=O)(=O)CCCCCOc1ccc([C@H]2C[C@]3(C)[C@@H](O)CC[C@H]3[C@@H]3CCc4cc(O)ccc4[C@H]32)cc1 [Example 7, N-butyl-5-[4-(Δ1,3,5(10)-estratrien-3,17β-diol-11β-yl)phenoxy]-N-methyl-pentanesulfonamide] | 152 | marked affinity | 2.5
2 | CN(CC(F)(F)C(F)(F)C(F)(F)F)S(=O)(=O)CCCCCOc1ccc([C@H]2C[C@]3(C)[C@@H](O)CC[C@H]3[C@@H]3CCc4cc(O)ccc4[C@H]32)cc1 [Example 8, 5-[4-(Δ1,3,5(10)-estratrien-3,17β-diol-11βyl)-Phenoxy]-N-(2,2,3,3,4,4,4-heptafluorobutyl)-N-methyl-pentanesulfonamide] | 114 | marked affinity | 1.5
3 | CCCCNS(=O)(=O)CCCCCOc1ccc([C@H]2C[C@]3(C)[C@@H](O)CC[C@H]3[C@@H]3CCc4cc(O)ccc4[C@H]32)cc1 [Example 2, N-butyl-5-[4-(Δ1,3,5(10)-estratrien-3,17β-diol-11β-yl)phenoxy]-pentanesulfonamide] | 82 | marked affinity | 3
